Test results reported in ChEMBL document CHEMBL3259765, “ProTides of N-(3-(5-(2'-deoxyuridine))prop-2-ynyl)octanamide as potential anti-tubercular and anti-viral agents” (Bioorg Med Chem, 2014).
Converted amounts (≈) assume the structure as drawn.

test system: Mycobacterium tuberculosis variant bovis BCG; assay: Antibacterial activity against Mycobacterium bovis BCG ATCC 35734 up to 2 weeks by HT-SPOTi assay; type: functional; settings: ATCC 35734, 336 h

SMILES	MIC [µg/mL]
CCCCCCCC(=O)NCC#Cc1cn([C@H]2C[C@H](O)[C@@H](COP(=O)(N[C@@H](C)C(=O)OCC)Oc3ccccc3)O2)c(=O)[nH]c1=O (stereo partly drawn)	250 (≈ 377 µM)
CCCCCCCC(=O)NCC#Cc1cn([C@H]2C[C@H](O)[C@@H](COP(=O)(N[C@@H](C)C(=O)OCc3ccccc3)Oc3cccc4ccccc34)O2)c(=O)[nH]c1=O (stereo partly drawn)	250 (≈ 323 µM)
CCCCCCCC(=O)NCC#Cc1cn([C@H]2C[C@H](O)[C@@H](COP(=O)(NCC(=O)OCc3ccccc3)Oc3ccccc3)O2)c(=O)[nH]c1=O (stereo partly drawn)	> 250
CCCCCCCC(=O)NCC#Cc1cn([C@H]2C[C@H](O)[C@@H](COP(=O)(NC(C)(C)C(=O)OCc3ccccc3)Oc3ccccc3)O2)c(=O)[nH]c1=O (stereo partly drawn)	125 (≈ 169 µM)
CCCCCCCC(=O)NCC#Cc1cn([C@H]2C[C@H](O)[C@@H](COP(=O)(N[C@@H](C)C(=O)OCC)Oc3cccc4ccccc34)O2)c(=O)[nH]c1=O (stereo partly drawn)	125 (≈ 175 µM)
CCCCCCCC(=O)NCC#Cc1cn([C@H]2C[C@H](O)[C@@H](COP(=O)(N[C@@H](C)C(=O)OCCC)Oc3ccccc3)O2)c(=O)[nH]c1=O (stereo partly drawn)	125 (≈ 185 µM)
CCCCCCCC(=O)NCC#Cc1cn([C@H]2C[C@H](O)[C@@H](COP(=O)(N[C@H](C(=O)OCc3ccccc3)C(C)C)Oc3ccccc3)O2)c(=O)[nH]c1=O (stereo partly drawn)	125 (≈ 166 µM)
CCCCCCCC(=O)NCC#Cc1cn([C@H]2C[C@H](O)[C@@H](COP(=O)(N[C@@H](C)C(=O)OCc3ccccc3)Oc3ccccc3)O2)c(=O)[nH]c1=O (stereo partly drawn)	125 (≈ 172 µM)
CCCCCCCC(=O)NCC#Cc1cn([C@H]2C[C@H](O)[C@@H](COP(=O)(N[C@@H](C)C(=O)OC)Oc3cccc4ccccc34)O2)c(=O)[nH]c1=O (stereo partly drawn)	62.5 (≈ 89.5 µM)
CCCCCCCC(=O)NCC#Cc1cn([C@H]2C[C@H](O)[C@@H](COP(=O)(N[C@H](C)C(=O)OCc3ccccc3)Oc3ccccc3)O2)c(=O)[nH]c1=O (stereo partly drawn)	62.5 (≈ 86.2 µM)
CCCCCCCC(=O)NCC#Cc1cn([C@H]2C[C@H](O)[C@@H](CO)O2)c(=O)[nH]c1=O	> 250
CCCCCCCC(=O)NCC#Cc1cn([C@H]2C[C@H](O)[C@@H](COP(=O)(N[C@@H](C)C(=O)OC)Oc3ccccc3)O2)c(=O)[nH]c1=O (stereo partly drawn)	> 250
CCCCCCCC(=O)NCC#Cc1cn([C@H]2C[C@H](O)[C@@H](COP(=O)(N[C@@H](C)C(=O)OCC(C)C)Oc3cccc4ccccc34)O2)c(=O)[nH]c1=O (stereo partly drawn)	125 (≈ 169 µM)
